Data from ChEMBL document CHEMBL4376887, “Rose Bengal-Amphiphilic Peptide Conjugate for Enhanced Photodynamic Therapy of Malignant Melanoma” (J Med Chem, 2020).
The source made the active and inactive calls. The rule behind the calls is not given here.

Tests used:
B16-F10-luc2 [1] = experiment: Photo-activated cytotoxicity against mouse B16-F10-luc2 cells assessed as cell viability at 1 uM preincubated for 3 hrs followed by compound washout and subsequent 22.8 J cm'-2 light irradiation for 60 secs measured after 21 hrs by MTT assay relative to control; type: functional; settings: B16-F10-luc2, light or radiation study, read-out: Activity
[2] = Induction of ROS generation in ethanol assessed as reduction in DPBF absorbance at 410 nm at 1 uM preincubated for 10 mins followed by 342 J cm'-2 light irradiation for 15 mins and measured at 5 mins interval for 15 mins by spectrometric method; type: functional
[3] = Induction of singlet oxygen generation in ethanol at 1 uM preincubated for 10 mins followed by 342 J cm'-2 light irradiation for 15 mins and measured at 5 mins interval for 15 mins by spectrometric method; type: functional
B16-F10-luc2 [4] = experiment: Antitumor activity against mouse B16-F10-luc2 cells implanted in SCID mouse assessed as tumor volume at 100 uM, iv administered 30 mins prior to 68.4 J cm'-2 light irradiation for 3 mins on day 1, 2, 7, and 9 measured for 12 days relative to control; type: functional
B16-F10-luc2 [5] = experiment: Antitumor activity against mouse B16-F10-luc2 cells implanted in SCID mouse assessed as reduction in tumor growth at 100 uM, iv administered 30 mins prior to 68.4 J cm'-2 light irradiation for 3 mins on day 1, 2, 7, and 9 measured on day 13; type: functional, organism-based
MCF7 [6] = experiment: Cytotoxicity against human MCF7 cells assessed as reduction in cell viability up to 1 uM incubated for 24 hrs under dark condition by MTT assay; type: cell-based; settings: mcf7, 24 h
PANC-1 [7] = experiment: Cytotoxicity against human PANC1 cells assessed as reduction in cell viability up to 1 uM incubated for 24 hrs under dark condition by MTT assay; type: cell-based; settings: panc-1, 24 h
HeLa [8] = experiment: Photo-activated cytotoxicity against human HeLa cells assessed as reduction in cell viability preincubated for 4 hrs followed by compound washout and subsequent 3.3 mW cm'-2 light irradiation for 24 mins measured after 48 hrs by MTT assay; type: functional, cell-based; settings: light or radiation study
[9] = Cytotoxicity against mouse B16-F10-luc2 cells assessed as cell viability at 1 uM incubated for 24 hrs under dark condition by MTT assay relative to control; type: cell-based; settings: read-out: Activity
B16-F10-luc2 [10] = experiment: Photo-activated cytotoxicity against mouse B16-F10-luc2 cells assessed as reduction in cell viability preincubated for 3 hrs followed by compound washout and subsequent 22.8 J cm'-2 light irradiation for 60 secs measured after 21 hrs by MTT assay; type: functional, cell-based; settings: B16-F10-luc2, light or radiation study
B16-F10-luc2 [11] = experiment: (§1) Induction of apoptosis in mouse B16-F10-luc2 cells assessed as decrease in viable cells at 1 uM preincubated for 3 hrs followed by compound washout and subsequent 22.8 J cm'-2 light irradiation for 60 secs measured after 21 hrs by Alexa Fluor 488 Annexin V/Dead Cell staining based flow cytometry; type: functional
B16-F10-luc2 [12] = experiment: as §1, with “increase” for “decrease”, “late apoptotic” for “viable”; type: functional
B16-F10-luc2 [13] = experiment: Induction of apoptosis in mouse B16-F10-luc2 cells assessed as increase in necrotic cells at 1 uM preincubated for 3 hrs followed by compound washout and subsequent 22.8 J cm'-2 light irradiation for 60 secs measured after 21 hrs by Alexa Fluor 488 Annexin V/Dead Cell staining based flow cytometry; type: functional
B16-F10-luc2 [14] = experiment: Induction of apoptosis in mouse B16-F10-luc2 cells assessed as decrease in viable cells at 1 uM measured after 24 hrs by Alexa Fluor 488 Annexin V/Dead Cell staining based flow cytometry; type: functional
B16-F10-luc2 [15] = experiment: Induction of apoptosis in mouse B16-F10-luc2 cells assessed as increase in late apoptotic cells at 1 uM measured after 24 hrs by Alexa Fluor 488 Annexin V/Dead Cell staining based flow cytometry; type: functional
B16-F10-luc2 [16] = experiment: Induction of apoptosis in mouse B16-F10-luc2 cells assessed as increase in necrotic cells at 1 uM measured after 24 hrs by Alexa Fluor 488 Annexin V/Dead Cell staining based flow cytometry; type: functional
B16-F10-luc2 [17] = experiment: Induction of reactive oxygen species generation in mouse B16-F10-luc2 cells at 10 uM preincubated for 3 hrs followed by compound washout prior to […] addition for 1 hr and subsequent 22.8 J cm'-2 light irradiation for 60 secs post media washout and measured immediately by fluorescence assay; type: functional, cell-based
B16-F10-luc2 [18] = experiment: Antitumor activity against mouse B16-F10-luc2 cells implanted in SCID mouse assessed as tumor growth at 100 uM, iv administered on day 1, 2, 7, and 9 measured for 12 days relative to control; type: functional
B16-F10-luc2 [19] = experiment: Antitumor activity against mouse B16-F10-luc2 cells implanted in SCID mouse assessed as tumor growth at 100 uM, iv administered 30 mins prior to 68.4 J cm'-2 light irradiation for 3 mins on day 1, 2, 7, and 9 measured for 12 days relative to control; type: functional
[20] = Toxicity in mouse B16-F10-luc2 cells implanted SCID mouse assessed as effect on body weight at 100 uM, iv administered 30 mins prior to 68.4 J cm'-2 light irradiation for 3 mins on day 1, 2, 7, and 9; type: organism-based; settings: in vivo, 0.05 h
[21] = Acute toxicity in mouse B16-F10-luc2 cells implanted SCID mouse at 100 uM, iv administered 30 mins prior to 68.4 J cm'-2 light irradiation for 3 mins on day 1, 2, 7, and 9; type: organism-based; settings: in vivo, 0.05 h
MCF7 [22] = experiment: Photo-activated cytotoxicity against human MCF7 cells assessed as reduction in cell viability up to 1 uM preincubated for 3 hrs followed by compound washout and subsequent 22.8 J cm'-2 light irradiation for 60 secs measured after 21 hrs by MTT assay; type: functional, cell-based
PANC-1 [23] = experiment: Photo-activated cytotoxicity against human PANC1 cells assessed as reduction in cell viability up to 1 uM preincubated for 3 hrs followed by compound washout and subsequent 22.8 J cm'-2 light irradiation for 60 secs measured after 21 hrs by MTT assay; type: functional, cell-based
HeLa [24] = experiment: Photo-activated cytotoxicity against human HeLa cells assessed as reduction in cell viability preincubated for 3 hrs followed by compound washout and subsequent 22.8 J cm'-2 light irradiation for 60 secs measured after 21 hrs by MTT assay; type: functional, cell-based; settings: light or radiation study
[25] = Drug uptake in mouse B16-F10-luc2 cells assessed as increase in fluorescence intensity at 10 uM measured after 3 hrs by confocal laser scanning microscopic analysis relative to RB; type: ADME, cell-based; settings: b16-f10-luc2, 3 h

In the case of O=C(O)CCCCCCCOC(=O)c1c(Cl)c(Cl)c(Cl)c(Cl)c1-c1c2cc(I)c(=O)c(I)c-2oc2c(I)c(O)c(I)cc12, the viability at 1 µM (B16-F10-luc2 [1]) is reported as 62%, the Activity [2] is reported as “Active” and the Activity [3] is reported as “Active”.

In the case of O=C([O-])c1c(Cl)c(Cl)c(Cl)c(Cl)c1-c1c2cc(I)c(=O)c(I)c-2oc2c(I)c([O-])c(I)cc12.[Na+].[Na+] [ROSE BENGAL SODIUM], the viability at 1 µM (B16-F10-luc2 [1]) is reported as 69%, the Activity [2] is reported as “Active” and the Activity (B16-F10-luc2 [4]) is reported as 502%. The Activity (B16-F10-luc2 [5]) was “Active”, the Activity (MCF7 [6]) was “Active” and the Activity (PANC-1 [7]) was “Active”.

In the case of C=Cc1c(C)c2cc3[nH]c(cc4nc(cc5nc(cc1[nH]2)C(C)=C5CCC(=O)O)C(CCC(=O)O)=C4C)c(C)c3C=C, the IC50 (HeLa [8]) is reported as 1.61 µM.

With C=Cc1c(C)c2cc3[nH]c(cc4nc(cc5nc(cc1[nH]2)C(C)=C5CCC(=O)N[C@@H](CS)C(=O)N[C@@H](CCCCN)C(=O)N[C@@H](CC(C)C)C(=O)N[C@@H](C)C(=O)N[C@@H](CCCCN)C(=O)N[C@@H](CC(C)C)C(=O)N[C@@H](C)C(=O)N[C@@H](CCCCN)C(=O)N[C@@H](CCCCN)C(=O)N[C@@H](CC(C)C)C(=O)N[C@@H](C)C(=O)N[C@@H](CCCCN)C(=O)N[C@@H](CC(C)C)C(=O)N[C@@H](C)C(=O)N[C@@H](CCCCN)C(N)=O)C(CCC(=O)O)=C4C)c(C)c3C=C the viability at 1 µM (B16-F10-luc2 [1]) was 38% and the viability at 24 h, 1 µM [9] was 46%.

Work on CC(C)C[C@H](NC(=O)[C@H](CCCCN)NC(=O)[C@H](C)NC(=O)[C@H](CC(C)C)NC(=O)[C@H](CCCCN)NC(=O)[C@H](CCCCN)NC(=O)[C@H](C)NC(=O)[C@H](CC(C)C)NC(=O)[C@H](CCCCN)NC(=O)[C@H](C)NC(=O)[C@H](CC(C)C)NC(=O)[C@H](CCCCN)NC(=O)[C@H](CS)NC(=O)CCCCCCCOC(=O)c1c(Cl)c(Cl)c(Cl)c(Cl)c1-c1c2cc(I)c(=O)c(I)c-2oc2c(I)c(O)c(I)cc12)C(=O)N[C@@H](C)C(=O)N[C@@H](CCCCN)C(N)=O yielded a viability at 1 µM (B16-F10-luc2 [1]) of 6%, a viability at 24 h, 1 µM [9] of 69% and an IC50 (B16-F10-luc2 [10]) of 0.31 µM. The Activity (B16-F10-luc2 [11]) was “Active”, the Activity (B16-F10-luc2 [12]) was “Active” and the Activity (B16-F10-luc2 [13]) was “Active”. For the same molecule, the Activity (B16-F10-luc2 [14]) was “Active”, the Activity (B16-F10-luc2 [15]) was “Active” and the Activity (B16-F10-luc2 [16]) was “Active”. The Activity [2] was “Active”, the Activity [3] was “Active” and the Activity (B16-F10-luc2 [17]) was “Active”. For the same molecule, the Activity (B16-F10-luc2 [18]) was 573%, the Activity (B16-F10-luc2 [19]) was 23% and the Activity (B16-F10-luc2 [5]) was “Active”. The Activity [20] was “Non-Toxic”, the Activity [21] was “Non-Toxic” and the Activity (MCF7 [22]) was “Active”. For the same molecule, the Activity (PANC-1 [23]) was “Active”, the Activity (MCF7 [6]) was “Active” and the Activity (PANC-1 [7]) was “Active”. It also gave an IC50 (HeLa [24]) of 0.29 µM and a Drug uptake [25] of 69%.
